Experimental data as given in patent US20160151335A1, “METHODS OF MODULATING CFTR ACTIVITY” (PROTEOSTASIS THERAPEUTICS, INC., priority 2013, published 2016).

What was measured:
ΔF508-CFTR [1] = biological target: T1, ΔF508-CFTR (Homo sapiens, UniProt P13569, DEL508-508); assay: hBE equivalent current (Ieq) assay, AUC of equivalent chloride current; format: cell-based; conditions: compound at 10 uM, 24 h, primary hBE cells homozygous ΔF508; AUC increase relative to VX-809 at 1 uM
T1 construct: Primary lung epithelial cells (hBEs) homozygous for the Cystic Fibrosis-causing ΔF508 mutation; endogenous in cells; host or cells: primary lung (bronchial) epithelial cells (hBE) homozygous for ΔF508, differentiated at an air-liquid interface
T1 sequence (P13569 with tags, fused parts or gaps DEL508-508): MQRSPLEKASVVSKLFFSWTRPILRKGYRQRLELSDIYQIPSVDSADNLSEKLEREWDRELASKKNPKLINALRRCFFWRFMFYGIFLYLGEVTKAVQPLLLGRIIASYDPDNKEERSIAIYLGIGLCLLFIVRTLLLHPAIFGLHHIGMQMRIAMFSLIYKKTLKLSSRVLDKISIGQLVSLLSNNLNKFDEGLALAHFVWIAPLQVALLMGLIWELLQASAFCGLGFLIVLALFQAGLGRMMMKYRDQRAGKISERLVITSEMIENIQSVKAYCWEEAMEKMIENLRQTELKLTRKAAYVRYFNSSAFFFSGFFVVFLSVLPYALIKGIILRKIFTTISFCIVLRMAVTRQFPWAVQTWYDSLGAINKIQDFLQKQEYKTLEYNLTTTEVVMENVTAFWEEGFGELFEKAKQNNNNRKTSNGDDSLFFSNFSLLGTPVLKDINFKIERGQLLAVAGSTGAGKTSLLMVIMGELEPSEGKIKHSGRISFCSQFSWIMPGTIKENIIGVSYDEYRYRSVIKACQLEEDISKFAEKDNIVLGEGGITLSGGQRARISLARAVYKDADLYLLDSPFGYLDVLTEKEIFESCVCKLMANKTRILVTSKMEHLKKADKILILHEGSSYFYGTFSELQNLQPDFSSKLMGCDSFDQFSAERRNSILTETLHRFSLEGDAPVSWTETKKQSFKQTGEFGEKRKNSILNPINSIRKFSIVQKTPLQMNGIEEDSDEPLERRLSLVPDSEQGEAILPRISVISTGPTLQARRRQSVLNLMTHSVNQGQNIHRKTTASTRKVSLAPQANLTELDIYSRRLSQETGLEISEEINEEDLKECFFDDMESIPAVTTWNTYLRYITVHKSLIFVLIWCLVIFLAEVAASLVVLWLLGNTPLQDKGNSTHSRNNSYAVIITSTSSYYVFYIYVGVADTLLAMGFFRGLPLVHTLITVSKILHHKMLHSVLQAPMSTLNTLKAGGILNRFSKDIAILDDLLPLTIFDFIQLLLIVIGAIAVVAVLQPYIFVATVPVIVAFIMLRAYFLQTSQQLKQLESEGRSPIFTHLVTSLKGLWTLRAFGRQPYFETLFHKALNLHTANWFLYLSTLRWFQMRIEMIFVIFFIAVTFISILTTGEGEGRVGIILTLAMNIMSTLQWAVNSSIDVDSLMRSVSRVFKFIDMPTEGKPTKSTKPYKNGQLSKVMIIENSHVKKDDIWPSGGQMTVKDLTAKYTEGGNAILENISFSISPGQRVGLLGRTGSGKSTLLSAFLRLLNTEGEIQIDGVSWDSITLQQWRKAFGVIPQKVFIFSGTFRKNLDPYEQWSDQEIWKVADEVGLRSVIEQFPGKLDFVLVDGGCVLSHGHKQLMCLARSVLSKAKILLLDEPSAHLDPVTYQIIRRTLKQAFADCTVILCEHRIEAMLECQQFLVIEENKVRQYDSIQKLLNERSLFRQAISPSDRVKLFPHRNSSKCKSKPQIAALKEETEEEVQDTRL
Description: Primary lung epithelial cells homozygous for the Cystic Fibrosis-causing ΔF508 mutation were differentiated for a minimum of 4 weeks in an air-liquid interface on Costar 24 well HTS filter plates prior to the equivalent current (Ieq) measurements. Cells were apically mucus-washed for 30 minutes 24 h prior to treatment with compounds. The basolateral media was removed and replaced with media containing the compound of interest diluted to its final concentration from DMSO stocks. Treated cells were incubated at 37° C. and 5% CO2 for 24 hours. At the end of the treatment period, the media was changed to the Ieq experimental solution for 30 minutes before the experiment and plates are maintained in a CO2-free incubator during this period. The plates containing the cells were then placed in pre-warmed heating blocks at 36° C.±0.5 for 15 minutes before measurements are taken. The transepithelial voltage (VT) and conductance (GT) were measured using a custom 24 channel current clamp (TECC-24) with 24 well electrode manifold. The Ieq assay measurements were made following additions with standardized time periods: • 1. The baseline VT and GT values were measured for approximately 20 minutes. • 2. Benzamil was added to block ENaC for 15 minutes. • 3. Forskolin plus VX-770 were added to maximally activate ΔF508-CFTR for 27 minutes. • 4. Bumetanide was added to inhibit the NaK2Cl cotransporter and shut-off secretion of chloride. The activity data captured was the area under the curve (AUC) for the traces of the equivalent chloride current. The AUC was collected from the time of the forskolin/VX-770 addition until the inhibition by bumetanide addition. Correction in response to compound treatment was scored as the increase in the AUC for compound-treated samples over that of vehicle-treated samples. (++ indicates activity ≧25% run at 10 uM of VX-809 at 1 uM, + indicates activity 10 to ≦25% run at 10 uM of VX-809 at 1 uM.

ΔF508-CFTR [2] = biological target: T1, ΔF508-CFTR; assay: Ussing chamber short-circuit current measurement, CFTRinh-172-inhibitable current; format: cell-based; conditions: 24 h, primary hBE cells homozygous ΔF508, relative to VX-809 (1 uM); for Solo % VX809 (Ussing activity): compound at 10 uM alone; for Combination % VX809 (Ussing activity): compound at 10 uM with VX-809 at 1 uM
Description: Primary lung epithelial cells (hBEs) homozygous for the Cystic Fibrosis-causing ΔF508 mutation were differentiated for a minimum of 4 weeks in an air-liquid interface on SnapWell filter plates prior to the Ussing measurements. Cells were apically mucus-washed for 30 minutes prior to treatment with compounds. The basolateral media was removed and replaced with media containing the compound of interest diluted to its final concentration from DMSO stocks. Treated cells were incubated at 37° C. and 5% CO2 for 24 hours. At the end of the treatment period, the cells on filters were transferred to the Ussing chamber and equilibrated for 30 minutes. The short-circuit current was measured in voltage clamp-mode (Vhold=0 mV), and the entire assay was conducted at a temperature of 36° C.-36.5° C. Once the voltages stabilized, the chambers were clamped, and data was recorded by pulse readings every 5 seconds. Following baseline current stabilization, the following additions were applied and the changes in current and resistance of the cells monitored: • 1. Benzamil to the apical chamber to inhibit ENaC sodium channel. • 2. Forskolin to both chambers to activate ΔF508-CFTR by phosphorylation. • 3. Genistein to both chambers to potentiate ΔF508-CFTR channel opening. • 4. CFTRinh-172 to the apical chamber to inhibit ΔF508-CFTR Cl− conductance.
The inhibitable current (that current that is blocked by CFTRinh-172) was measured as the specific activity of the ΔF508-CFTR channel, and increases in response to compound in this activity over that observed in vehicle-treated samples were identified as the correction of ΔF508-CFTR function imparted by the compound tested. ++ indicates activity ≧25% of VX-809 (1 uM) with compound at 10 uM and VX-809 at 1 uM; ** indicates activity ≧200% of VX-809 (1 uM) with compound at 10 uM and VX-809 at 1 uM; ** indicates activity 100-200% of VX-809 (1 uM) with compound at 10 uM and VX-809 at 1 uM; The transepithelial resistance (TER) for these compounds are within 30% of DMSO controls.

Row | Compound | Ieq hBE Activity (ΔF508-CFTR [1]) | Solo % VX809 (Ussing activity) (ΔF508-CFTR [2]) | Combination % VX809 (Ussing activity) (ΔF508-CFTR [2])
1 | COCCNC(=O)c1cc(-c2ccc(F)cc2)on1 [Compound 19] | ++ (++ indicates activity ≧25% run at 10 uM of VX-809 at 1 uM) | – | –
2 | O=C(NCCCCc1ccncc1)c1cc(-c2cccs2)on1 [Compound 239] | + (+ indicates activity 10 to ≦25% run at 10 uM of VX-809 at 1 uM) | – | –
3 | O=C(NCCn1nccn1)c1cc(-c2ccccc2)on1 [Compound 115] | ++ (++ indicates activity ≧25% run at 10 uM of VX-809 at 1 uM) | – | –
4 | CCn1nc(C)c(CCNC(=O)c2cc(-c3ccccc3)on2)c1C [Compound 10] | + (+ indicates activity 10 to ≦25% run at 10 uM of VX-809 at 1 uM) | – | –
5 | CN(CC1CCCO1)C(=O)c1cc(CN2CCOCC2)on1 (stereo not shown) [Compound 256] | + (+ indicates activity 10 to ≦25% run at 10 uM of VX-809 at 1 uM) | – | –
6 | Cc1nnsc1CNC(=O)c1cc(-c2ccccc2)on1 [Compound 344] | + (+ indicates activity 10 to ≦25% run at 10 uM of VX-809 at 1 uM) | – | –
7 | Cn1ccc(CCCNC(=O)c2cc(-c3ccccc3)on2)c1 [Compound 198] | ++ (++ indicates activity ≧25% run at 10 uM of VX-809 at 1 uM) | – | –
8 | Cc1nn2cc(CCNC(=O)c3cc(-c4ccccc4)on3)nc2s1 [Compound 114] | ++ (++ indicates activity ≧25% run at 10 uM of VX-809 at 1 uM) | – | –
9 | Cc1cn(CCNC(=O)c2cc(-c3ccccc3)on2)nn1 [Compound 9] | – | ++ (++ indicates activity ≧25% of VX-809 (1 uM) with compound at 10 uM and VX-809 at 1 uM) | –
10 | CCc1ncc(CCNC(=O)c2cc(-c3ccccc3)on2)s1 [Compound 374] | + (+ indicates activity 10 to ≦25% run at 10 uM of VX-809 at 1 uM) | – | –
11 | O=C(NCCCn1cccn1)c1cc(-c2ccccc2)on1 [Compound 189] | ++ (++ indicates activity ≧25% run at 10 uM of VX-809 at 1 uM) | – | –
12 | O=C(NCCc1cccnc1)c1cc(-c2cccs2)on1 [Compound 233] | + (+ indicates activity 10 to ≦25% run at 10 uM of VX-809 at 1 uM) | – | –
13 | O=C(NCCCn1cncn1)c1cc(-c2ccccc2)on1 [Compound 192] | ++ (++ indicates activity ≧25% run at 10 uM of VX-809 at 1 uM) | – | –
14 | O=C(NCCCn1ccnc1)c1cc(-c2ccc(F)cc2)on1 [Compound 15] | + (+ indicates activity 10 to ≦25% run at 10 uM of VX-809 at 1 uM) | – | –
15 | O=C(NCCN1CCOC1=O)c1cc(-c2ccccc2)on1 [Compound 5] | ++ (++ indicates activity ≧25% run at 10 uM of VX-809 at 1 uM) | – | –
16 | O=C(NCC1CCOC1)c1cc(-c2ccccc2)on1 (stereo not shown) [Compound 52] | ++ (++ indicates activity ≧25% run at 10 uM of VX-809 at 1 uM) | – | –
17 | O=C(NCC1CCCC1)c1cc(-c2ccccc2)on1 [Compound 51] | + (+ indicates activity 10 to ≦25% run at 10 uM of VX-809 at 1 uM) | – | –
18 | COCc1nc(CNC(=O)c2cc(-c3ccccc3)on2)no1 [Compound 372] | ++ (++ indicates activity ≧25% run at 10 uM of VX-809 at 1 uM) | – | –
19 | O=C(Nc1cccnc1)c1cc(-c2ccccc2)on1 [Compound 345] | + (+ indicates activity 10 to ≦25% run at 10 uM of VX-809 at 1 uM) | – | –
20 | O=C(NCCCn1ncc2ccccc21)c1cc(-c2ccccc2)on1 [Compound 204] | ++ (++ indicates activity ≧25% run at 10 uM of VX-809 at 1 uM) | – | –
21 | Cn1c(CCCNC(=O)c2cc(-c3ccccc3)on2)nc2ccccc21 [Compound 17] | + (+ indicates activity 10 to ≦25% run at 10 uM of VX-809 at 1 uM) | – | –
22 | O=C(NCC1CCOC1)c1cc(-c2cccs2)on1 (stereo not shown) [Compound 226] | ++ (++ indicates activity ≧25% run at 10 uM of VX-809 at 1 uM) | – | –
23 | O=C(NCCN1C(=O)CSC1=O)c1cc(-c2ccccc2)on1 [Compound 94] | + (+ indicates activity 10 to ≦25% run at 10 uM of VX-809 at 1 uM) | – | –
24 | O=C(NCCCn1ccnc1)c1cc(-c2ccccc2)on1 [Compound 16] | ++ (++ indicates activity ≧25% run at 10 uM of VX-809 at 1 uM) | ++ (++ indicates activity ≧25% of VX-809 (1 uM) with compound at 10 uM and VX-809 at 1 uM) | ** (** indicates activity ≧200% of VX-809 (1 uM) with compound at 10 uM and VX-809 at 1 uM)
25 | O=C(NCCC1CCOCC1)c1cc(-c2ccccc2)on1 [Compound 90] | ++ (++ indicates activity ≧25% run at 10 uM of VX-809 at 1 uM) | – | –
26 | Cn1ccnc1SCCNC(=O)c1cc(-c2ccccc2)on1 [Compound 18] | ++ (++ indicates activity ≧25% run at 10 uM of VX-809 at 1 uM) | ++ (++ indicates activity ≧25% of VX-809 (1 uM) with compound at 10 uM and VX-809 at 1 uM) | ** (** indicates activity ≧200% of VX-809 (1 uM) with compound at 10 uM and VX-809 at 1 uM)
27 | Nc1nnc(CCCNC(=O)c2cc(-c3ccccc3)on2)s1 [Compound 201] | ++ (++ indicates activity ≧25% run at 10 uM of VX-809 at 1 uM) | – | –
28 | Cn1nccc1CCCNC(=O)c1cc(-c2ccccc2)on1 [Compound 188] | ++ (++ indicates activity ≧25% run at 10 uM of VX-809 at 1 uM) | – | –
29 | O=C(NC[C@@H]1CCCO1)c1cc(-c2ccccc2)on1 [Compound 2, (S)-5-phenyl-N-((tetrahydrofuran-2-yl)methyl)isoxazole-3-carboxamide] | ++ (++ indicates activity ≧25% run at 10 uM of VX-809 at 1 uM) | – | –
30 | O=C(NCCc1c[nH]c2ccccc12)c1cc(-c2ccccc2)on1 [Compound 120] | ++ (++ indicates activity ≧25% run at 10 uM of VX-809 at 1 uM) | – | –
